Data as given in patent US5041438A, “Method for treating retroviral infections with benzodiazepine compounds” (Hoffmann-La Roche Inc., priority 1989, dated 1991).
Entries after “also recorded” stand apart in the source; their conditions may differ. Read-outs that look alike come from different tables or passages of the source.

Key:
HIV/HTLV III, RF strain = test: p24 viral antigen capture assay (ELISA) in C8166 CD4+ T-cells; assay type: cell-based; details: for anti-viral activity in p24 viral antigen capture assay: result in words
Procedure: Compound I was tested for anti-viral activity in the p24 viral antigen capture assay.
The Enzyme Linked Immuno-absorbant Assay (ELISA) was used to test Compound I for anti-HIV activity by measuring virus replication in CD4^+ T-lymphocytes by detecting viral p24 antigen released into the tissue culture supernatant of infected cells.
High titer virus stocks [HIV/HTLV III, RF strain]were grown in H9 cells in RPMI-1640 (Flow Laboratories) supplemented with 10% fetal calf serum, penicillin (100 IU/ml) and streptomycin (100 μg/ml). Cell debris was removed by low speed centrifugation and the supernatant stored at -70° C. until required. The host cell line used in the anti-viral assays was the C8166 CD4^+ T-cell line which is particularly susceptible to infection with HIV. Cells were incubated with 10 TCID50, HIV/HTLV III (RF) at 37° C. for 90 minutes and then washed three times with PBS. Cell aliquots (2×10^5) were resuspended in 1.5 ml growth medium in 6 ml tubes and appropriate amounts of Compound I added and incubated at 37° C. At 72 hours post-infection, the supernatants from the cell cultures were assayed for p24 antigen. The antigen capture ELISA used was purchased from Coulter (Luton, UK). The assays were carried out on supernatants taken from infected cell cultures using the procedure described by the manufacturer. In each assay a positive control was included, together with a supernatant control taken from uninfected cells. The plates were read using the appropriate spectrophotometric detection system. Results of two separate assays are:
ID50 is defined as the dose of compound required to inhibit viral replication by 50 percent. […] Approximately 0.1 μM and 6 μM of Compound I yields 50 percent inhibition of viral replication. 0.003 μM AZT provided 50 percent inhibition of viral replication in one test conducted. ddC provided 50 percent inhibition at a concentration of 0.01 μM in one test.

TAT = test: anti-TAT assay: SeAP reporter expression under HIV-LTR in COS cells co-transfected with TAT; assay type: cell-based; details: 1, 10 and 100 μM, added 24 h post transfection, assayed 48 h later, FIG. 1
Excerpt: (§1) FIG. 1 Illustrates anti-TAT activity of Compound I. COS cells are co-transfected with TAT and Secreted Alkaline Phosphatase (SeAP) genes. The SeAP gene, under the control of the HIV-LTR (responsive to TAT activation) or the RSV-LTR (unresponsive to TAT action) serves as a monitor or reporter gene. SeAP activity in the HIV-LTR combination but not the RSV-LTR combination serves as a measure of TAT activity. Cells containing the RSV-LTR co-transfected gene combination serve as an indicator of the non-specific toxicity of added test compounds. The black bars represent the percent inhibition of SeAP activity by Compound I when the SeAP gene is under the control of HIV-LTR. The hatched bars represent the effect of Compound I on SeAP activity when the SeAP gene is regulated by RSV-LTR. […] The figure includes results from three separate assays.
(§2) Compound I was tested for anti-TAT activity in an anti-TAT assay described in copending patent application, now U.S. Ser. No. 07/428,555 filed Oct. 10, 1989, filed on the same day as the instant application and hereby incorporated by reference. […] The anti-TAT activity is measured by the percent inhibition of SeAP gene expression under the control of HIV-LTR.

HIV-1 NIT strain = test: inhibition of HIV-cytopathic effect and of viral RNA and antigen production in infected CD4+ CEM cells; assay type: cell-based; details: MOI=1, 3 and 6 days, FIGS. 2 and 3
Procedure: High titer virus stocks (HIV-1 NIT strain) were grown in CD4^+ CR1O cells in RMPI-1640 media (Gibco Laboratories) supplemented with 10% fetal calf serum and 0.1 mg/ml Gentamicin. The collected media were filtered through a 0.8 Micron filter and virus isolates were concentrated 100 fold and stored at -80° C.
CD4^+ CEM cells, propagated in the same medium, were incubated for 60 minutes at 37° C. with diluted stock virus at MOI=1. Cells were washed three times with phosphate buffered saline and resuspended in the medium at 2×10^5 cells/ml. Various quantities of Compound I were added. Three days after infection, numbers of live cells were counted by trypan blue exclusion [Mitsuya, et al. Proc. Natl. Acad. Sci. 83:1911 (1986)]. […] Cells stained with the fluorescent antibody were counted using a fluorescence microscope and the results were expressed as percentage of the total number of cells counted [(Hedenskog et al., J. Med. Virol. 1:9325 (1986)].
The viral RNA in infected cells was quantitized with an RNA-RNA hybridization/reversible target capture procedure [Gillespie et al. Molecular and Cellular Probes, 2:73 (1989)]. […] 2×10^5 live cells, determined by trypan blue exclusion, were used in each assay.
For cytotoxicity testing, uninfected CEM cells were treated with Compound I at similar concentrations and toxicity of the compound was measured by the live-cell count. […]

COS cells = test: parallel cytotoxicity assay: SeAP expression under RSV-LTR in COS cells; assay type: cell-based; details: RSV-LTR not responsive to TAT, FIG. 1
Excerpt: as §1, §2

HIV = details: in most patients; cited from earlier work

| SMILES | IC50 (HIV/HTLV III, RF strain; Human immunodeficiency virus 1, p24 antigen, C8166 cells, 72 h post-infection, first of two separate assays, read-out: ID50 (dose of compound required to inhibit viral replication by 50 percent)) | anti-viral activity in p24 viral antigen capture assay (HIV/HTLV III, RF strain) | anti-TAT activity (inhibition of SeAP gene expression under control of HIV-LTR) (TAT) | anti-HIV activity (HIV-cytopathic effect, viral RNA and antigen production) (HIV-1 NIT strain) | IC50 (HIV/HTLV III, RF strain; Human immunodeficiency virus 1, C8166, 72 h, read-out: ID50 (dose of compound required to inhibit viral replication by 50 percent), p24 antigen, C8166 cells, 72 h post-infection, first of two separate assays) | IC50 (HIV/HTLV III, RF strain; Human immunodeficiency virus 1, C8166, 72 h, read-out: ID50 (dose of compound required to inhibit viral replication by 50 percent), p24 antigen, C8166 cells, 72 h post-infection, second of two separate assays) | nonspecific cytotoxicity (SeAP gene expression under control of RSV-LTR) (COS cells) | virustatic range (body weight dose) (HIV) | IC50 (HIV/HTLV III, RF strain; Human immunodeficiency virus 1, p24 antigen, C8166 cells, 72 h post-infection, second of two separate assays, read-out: ID50 (dose of compound required to inhibit viral replication by 50 percent)) |
| --- | --- | --- | --- | --- | --- | --- | --- | --- | --- |
| Cc1cn([C@H]2C[C@H](N=[N+]=[N-])[C@@H](CO)O2)c(=O)[nH]c1=O [AZT] | 3 nM | active in the p24 assay; also recorded: exhibits anti-viral activity |  |  |  |  |  |  |  |
| O=C1CN=C(c2ccc[nH]2)c2cc(Cl)ccc2N1 [Compound I, 7-chloro-5-(2-pyrryl)-3H-1,4-benzodiazepin-2(1H)-one] |  | positive results; also recorded: exhibits anti-viral activity | specifically inhibits TAT action; also recorded: exhibits anti-TAT activity; also recorded: specific inhibitor of TAT | inhibition of HIV-cytopathic effect and viral RNA and antigen production | 100 nM | 6000 nM | does not exhibit nonspecific toxicity; also recorded: does not exhibit nonspecific cytotoxicity |  |  |
| Nc1ccn([C@H]2CC[C@@H](CO)O2)c(=O)n1 [ddC] |  | active in the p24 assay |  |  |  |  |  | 0.005-0.25 mg/kg body weight | 10 nM |
